Reference: patent US6303619A, “Meta-substituted acidic 8-phenylxanthine antagonists of A3 human adenosine receptors” (priority 1998, dated 2001)
Entries after “also recorded” stand apart in the source; their conditions may differ. Blank lines part the entries; values can stand above or below the compound they belong to.

Experiments:
[1] = tested on: receptor exhibiting an agonist pharmacological profile thought to be characteristic of the rat A3 subtype; conditions: angiotensin II-supported pithed rat; cited from earlier work
[2] = target: T1, human A3 adenosine receptor (Homo sapiens, UniProt P0DMS8); conditions: cited from earlier work
T1 construct: clone HS-21a contained the complete open reading frame corresponding to the human homolog of the rat A3 adenosine receptor; expressed in transfected cells; host or cells: CHO cells stably transfected with HS-21a cDNA
T1 sequence (P0DMS8 1-318): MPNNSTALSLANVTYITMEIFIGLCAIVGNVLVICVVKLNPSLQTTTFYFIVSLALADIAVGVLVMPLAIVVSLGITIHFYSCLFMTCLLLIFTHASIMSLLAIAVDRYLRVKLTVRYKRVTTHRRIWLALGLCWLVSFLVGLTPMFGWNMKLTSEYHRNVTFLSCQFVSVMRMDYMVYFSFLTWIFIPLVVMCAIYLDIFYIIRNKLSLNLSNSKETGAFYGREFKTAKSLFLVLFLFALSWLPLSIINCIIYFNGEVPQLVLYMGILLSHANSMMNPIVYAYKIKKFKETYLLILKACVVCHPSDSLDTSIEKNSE

[3] = tested on: sheep A3 adenosine receptor; conditions: cited from earlier work
A1 adenosine receptor = conditions: cited from earlier work
A2A adenosine receptor = conditions: cited from earlier work
A2B adenosine receptor = conditions: cited from earlier work
[4] = tested on: sheep A3 adenosine receptor; conditions: cited from earlier work; remark: listed apart in the source
[5] = target: T1, human A3 adenosine receptor; assay: 125I-ABA binding to membranes of stably transfected CHO cells expressing the human A3 adenosine receptor (HS-21a); conditions: for potency order of antagonists / potency order of agonists: order in words/symbols
Experimental: Membranes were prepared from transiently transfected COS7 cells […] after transfection or from G418-selected stably transfected CHO or HEK 293 cells. Cells were harvested in 1 mM EDTA in phosphate buffered saline and centrifuged at 2000×g for 10 minutes. The cell pellet was washed once with phosphate buffered saline. The cell pellet was resuspended in 2 mL of 5 mM Tris, pH 7.6/5mM MgCl2. Membranes were prepared from the cells by freeze-thaw lysis in which the suspension was frozen in a dry ice/ethanol bath and thawed at 25° C. twice. The suspension was homogenized after adding an additional 2 mL of 5 mM Tris, pH 7.6/5 mM MgCl2, in a glass dounce homogenizer with 20 strokes. The membranes were pelleted at 40,000×g at 4° C. for 20 minutes. The membrane pellet was resuspended at a protein concentration of 1-2 mg/mL in binding assay buffer, 50 mM Tris, pH 7.6/10 mM MgCl2. Protein concentration was determined by the method of Bradford ((1976) Anal. Biochem. 72: 248-250). […] Saturation binding of [^125 I]-N^6 -aminiobenizyladenosine (125I-ABA) or [^125 I]-N^6 -2-(4-amino-3-iodophenyl)ethyladenosine (APNEA) was performed on membranes prepared from pSVLA3 transfected COS7 cells. Membranes (100 μg) were incubated in the presence of 0.2 U/mL adenosine deaminase with increasing concentrations of ^125 I-ABA in the range of 0.1-30 nM for 120 minutes at 25° C. in a total volume of 500 μl. The binding assay was terminated by rapid filtration and three washes with ice-cold 50 mM Tris, pH 7.6/10 mM MgCl2 on a Skatron cell harvester equipped with a receptor binding flitermat (SKATRON INSTRUMENTS, INC). Non-specific binding was determined on non-transfected cells. Bound radioactivity was measured by scintillation counting in Ready Safe Scintillation Cocktail (BECKMAN).
The 1.7 kb HS-21a cDNA (A3) was subcloned as a SalI-BamHl fragment into the expression vector pCMV5 (Mumby, S. M., Heukeroth, R. O., Gordon, J. I. and Gilman, A. G. (1990) Proc. Natl. Acad. Sci. USA 87, 728-732.) creating the vector pCMV5-A3. CHO or HEK 293 cells stably expressing the human HS-21 a cDNA were prepared by co-transfection of 15 μg pCMV5-A3 and 1 μg pWLneo (Stratagene) using the calcium phosphate method. Stable cell lines were also generated using EBV based mammalian expression vectors, pREP (INVITROGEN). Neomycin resistant colonies were selected in 1 mg/mL G418 (GIBCO). Stable colonies were screened for expression of HS-21a by ^125 I-ABA binding.
Membranes were prepared from stable CHO cell lines in 10 mM Hepes, pH 7.4 containing 0.1 mM benzamidine and 0.1 mM PMSF as described (Mahan, L. C. et al., (1991) Mol. Pharinacol. 40, 1-7). Pellets were resuspended in 5 mM Hepes, pH 7.4/5 mM MgCl2 /0.1 mM benzarnidine/0.1 mM PMSF at a protein concentration of 1-2 mg/mL and were incubated with adenosine deaminase (Boehringer Mannheim), 2 U/mL at 37° C. for 20 minutes. Saturation binding of ^125 I-ABA was carried out on 50 μg of membranes for 120 minutes at 25° C. in a total volume of 100 μl. The assay was terminated by rapid filtration and three washes with ice-cold binding buffer on a Skatron harvester equipped with a receptor binding filtermat (Skatron Instruments, Inc.). The specific activity of ^125 I-ABA, initially 2,200 Ci/mmol, was reduced to 100 Ci/mmol with nonradioactive I-ABA for saturation analysis. Nonspecific binding was measured in the presence of 1 uM I-ABA. The KD and Bmax values were calculated by the EBDA program (McPherson, G. A. (1983) Computer Programs for Biomedicine 17, 107-114). Competition binding of agonists and antagonists was determined with ^125 I-ABA (0.17-2.0 nM, 2000 Ci/mmol). […] Binding data were analyzed and competition curves were constructed by use of the nonlinear regression curve fitting program Graph PAD InPlot, Version 3.0 (Graph Pad Software, San Diego).

[6] = tested on: rat A3 adenosine receptor; conditions: cited from earlier work
[7] = target: T1, human A3 adenosine receptor; assay: inhibition of forskolin-stimulated cAMP accumulation in stably transfected CHO cells expressing the human A3 receptor; assay type: cell-based; conditions: stably transfected CHO cells, human A3
Experimental: The human A3 adenosine receptor from a striatal cDNA library can be cloned using a probe derived from the homologous rat sequence.
cAMP Accumulation in Stable CHO Cell Lines
The changes in cAMP accumulation can alternatively be measured in stably transfected CHO cells expressing the human adenosine receptor subtypes. CHO cells are washed twice in phosphate buffered saline (PBS) and detached in 0.2% EDTA in PBS. The cells are pelleted at 800 rpm for 10 min and resuspended in KRH buffer (140 mM NaCl/5 mM KCl/2 mM CaCl2 /1.2 mM MgSO4 /1.2 mM KH2 PO4 /6 mM glucose/25 mM Hepes buffer, pH 7.4). The cells are washed once in KRH buffer and resuspended at 10^7 cells/mL. The cell suspension (100 μl) is mixed with 100 μl of KRH buffer containing 200 uM Ro 20-1724 and incubated at 37° C. for 10 minutes. Adenosine (10 uM) was added in 200 μl KRH buffer containing 200 uM Ro 20-1724 and incubated at 37° C. for 20 minutes. After the incubation, 400 μl of 0.5 mM NaOAc (pH 6.2) was added and the sample was boiled for 20 minutes. The supernatant was recovered by centrifugation for 15 minutes and stored at -70° C. cAMP levels were determined by radiommunoassay (RIANEN kit, DuPont/NEN) using the to acetylation protocol. The effect of antagonists on cAMP accumulation are measured by preincubation for 20 minutes before adding adenosine.

[8] = tested on: rat A3 adenosine receptor; conditions: cited from earlier work; remark: listed apart in the source
A3 adenosine receptor = conditions: animal model; Jin et al. 1997; cited from earlier work
[9] = tested on: myocardial ischemic injury; conditions: inhibitor of mast cell degranulation; cited from earlier work
asthmatics = conditions: cited from earlier work

Structure (SMILES): Cn1c(=O)c2[nH]c(-c3ccc(S(=O)(=O)O)cc3)nc2n(C)c1=O [8-(para-sulfophenyl)theophylline]
sensitivity of hypotension to blockade [1]: insensitive to blockade | blockade of human A3 receptor [2]: blocks | blockade of sheep A3 receptor [3]: blocks | action on A1 subtype (A1 adenosine receptor): broad action | action on A2A subtype (A2A adenosine receptor): broad action | action on A2B subtype (A2B adenosine receptor): broad action

Structure (SMILES): Nc1ccc(CCNc2ncnc3c2ncn3[C@@H]2O[C@H](CO)[C@@H](O)[C@H]2O)cc1I [APNEA, N^6-2-(4-amino-3-iodophenyl)ethyladenosine]
agonist affinity order [4]: I-ABA>APNEA>NECA≥R-PIA>>CPA

Structure (SMILES): CCCn1c(=O)c2[nH]c(-c3ccc(C=CC(=O)O)cc3)nc2n(CCC)c1=O [BW-A1433, 1,3-dipropyl-8-(4-acrylate) phenylxanthine]
potency order of antagonists ([5]; human A3): I-ABOPX>1,3-dipropyl-8-(4-acrylate) phenylxanthine (BW-A1433)≥xanthine amino cogener (XAC)>>1,3-dipropyl-8-cyclopentylxanthine (DPCPX)

Structure (SMILES): CCNC(=O)[C@H]1O[C@@H](n2cnc3c(N)nc(NCCc4ccc(CCC(=O)O)cc4)nc32)[C@H](O)[C@@H]1O [CGS21680]
potency order for inhibition of cyclic AMP accumulation [6]: NECA=R-PIA>CGS21680

Ki ([5]; competition with 125I-ABA (FIG. 3a), read-out: Ki, agonists): 0.089 µM | inhibition of forskolin-stimulated cAMP accumulation [7]: 30-40%
Structure (SMILES): OC[C@H]1O[C@@H](n2cnc3c(NC4CCCC4)ncnc32)[C@H](O)[C@@H]1O [CPA, N^6 -cyclopentyladenosine]
potency order of agonists ([5]; human A3): N-ethylcarboxamidoadenosine (NECA)≥R-phenylisopropyladenosine(R-PIA)>N^6 -cyclopentyladenosine (CPA)>S-p-benylisopropyladenosine (S-PIA); also recorded: NECA>R-PIA>CPA>S-PLA | agonist affinity order [4]: I-ABA>APNEA>NECA≥R-PIA>>CPA

Structure (SMILES): CCCn1c(=O)c2[nH]c(C3CCCC3)nc2n(CCC)c1=O [DPCPX, 1,3-dipropyl-8-cyclopentylxanthine]
potency order of antagonists ([5]; human A3): I-ABOPX>1,3-dipropyl-8-(4-acrylate) phenylxanthine (BW-A1433)≥xanthine amino cogener (XAC)>>1,3-dipropyl-8-cyclopentylxanthine (DPCPX) | binding to rat A3 receptor [8]: not to bind

Structure (SMILES): CCCn1c(=O)c2[nH]c(-c3ccc(OCC(=O)O)cc3)nc2n(Cc2ccc(N)c(I)c2)c1=O [I-ABOPX]
A3 antagonist affinity in words ([5]; human A3): highest affinity para-substituted antagonist yet reported for A3 adenosine receptors | potency order of antagonists ([5]; human A3): I-ABOPX>1,3-dipropyl-8-(4-acrylate) phenylxanthine (BW-A1433)≥xanthine amino cogener (XAC)>>1,3-dipropyl-8-cyclopentylxanthine (DPCPX)

Structure (SMILES): CCNC(=O)[C@H]1O[C@@H](n2cnc3c(N)ncnc32)[C@H](O)[C@@H]1O [NECA, N-ethylcarboxamidoadenosine]
prevention of specific binding of 125I-ABA ([5]; 400 uM NECA): prevented | potency order of agonists ([5]; human A3): N-ethylcarboxamidoadenosine (NECA)≥R-phenylisopropyladenosine(R-PIA)>N^6 -cyclopentyladenosine (CPA)>S-p-benylisopropyladenosine (S-PIA); also recorded: NECA>R-PIA>CPA>S-PLA | inhibition of forskolin-stimulated cAMP accumulation [7]: 30-40% | potency order for inhibition of cyclic AMP accumulation [6]: NECA=R-PIA>CGS21680 | agonist affinity order [4]: I-ABA>APNEA>NECA≥R-PIA>>CPA

inhibition of forskolin-stimulated cAMP accumulation [7]: 30-40%
Structure (SMILES): C[C@H](Cc1ccccc1)Nc1ncnc2c1ncn2[C@@H]1O[C@H](CO)[C@@H](O)[C@H]1O [R-PIA]
potency order of agonists ([5]; human A3): N-ethylcarboxamidoadenosine (NECA)≥R-phenylisopropyladenosine(R-PIA)>N^6 -cyclopentyladenosine (CPA)>S-p-benylisopropyladenosine (S-PIA); also recorded: NECA>R-PIA>CPA>S-PLA | potency order for inhibition of cyclic AMP accumulation [6]: NECA=R-PIA>CGS21680 | agonist affinity order [4]: I-ABA>APNEA>NECA≥R-PIA>>CPA

inhibition of forskolin-stimulated cAMP accumulation [7]: 30-40%
Structure (SMILES): C[C@@H](Cc1ccccc1)Nc1ncnc2c1ncn2[C@@H]1O[C@H](CO)[C@@H](O)[C@H]1O [S-PIA, (R,S)-N^6-phenyl-2-propyladenosine]
potency order of agonists ([5]; human A3): N-ethylcarboxamidoadenosine (NECA)≥R-phenylisopropyladenosine(R-PIA)>N^6 -cyclopentyladenosine (CPA)>S-p-benylisopropyladenosine (S-PIA); also recorded: NECA>R-PIA>CPA>S-PLA

Structure (SMILES): CCCn1c(=O)c2[nH]c(-c3ccc(OCC(=O)NCCN)cc3)nc2n(CCC)c1=O [XAC]
binding to rat A3 receptor [8]: not to bind

non-specific binding to CHO cell membranes ([5]; 125I-APNEA, preliminary experiments): high non-specific
Structure (SMILES): Nc1ccc(CCNc2ncnc3c2ncn3[C@@H]2O[C@H](CO)[C@@H](O)[C@H]2O)cc1[125I] [^125 I-APNEA, N^6-2-(4-amino-3^125 iodophenyl)ethyladenosine]
binding to rat A3 receptor [8]: bind

Structure (SMILES): OC[C@H]1O[C@@H](n2cnc3c(O)ncnc32)[C@H](O)[C@@H]1O [inosine]
induction of mast cell degranulation (A3 adenosine receptor): induce mast cell degranulation

Structure (SMILES): N#Cc1cc(NC(=O)C(=O)O)c(Cl)c(NC(=O)C(=O)O)c1 [lodoxamide]
reduction of myocardial ischemic injury [9]: reduces myocardial ischemic injury

Structure (SMILES): Cn1c(=O)c2[nH]cnc2n(C)c1=O [theophylline]
antagonism of adenosine-induced bronchoconstriction (asthmatics): antagonized
